Results on one compound are retold here after patent US20070219825A1, “METHOD OF MANAGING AND REDUCING SIDE EFFECTS ASSOCIATED WITH EXPOSURE TO A DRUG” (priority 2005, published 2007).

Series [1] in a line: placebo-controlled trials, liver aminotransferases. It is filed as in vivo, patients. The source says:
(§1) As described herein, an exemplary restricted drug distribution program for the distribution of sitaxsentan sodium has been developed, in accordance with the restricted distribution methods provided above, to minimize the risk of side effects associated with exposure to sitaxsentan sodium. Sitaxsentan sodium is an endothelin receptor antagonist (ETRA) used to treat people diagnosed with pulmonary arterial hypertension (PAH). […] However, along with the many benefits, there are many risks associated with exposure to sitaxsentan sodium. For instance, ETRA's, as a class, have been associated with liver function abnormalities. […] In addition, ETRA's, as a class, have consistently produced teratogenic effects in animals. […] Although the effects of sitaxsentan sodium on human development are not known, it is likely to produce major birth defects if used by pregnant women. Sitaxsentan sodium also is contraindicated for those taking cyclosporine A (used for treatment of psoriasis and rheumatoid arthritis, and to prevent rejection of organ transplants).

The subject of series [2] is pulmonary arterial hypertension (PAH). The experiment in a line: clinical studies in subjects with PAH. It is filed as in vivo.
Description: as §1

The next series relates to metabolism of warfarin. The conditions noted are these: concomitant warfarin; cited from earlier work.
Another series relates to rat. The experiment in a line: reproductive toxicology studies, dosing during pregnancy. Format: in vivo.
Description: as §1

Regarding `Cc1cc2c(cc1CC(=O)c1sccc1S(=O)(=O)Nc1onc(C)c1Cl)OCO2` [sitaxsentan sodium], the “patients with at least a three-fold increase of liver aminotransferases (hepatoxicity)” value in series [1] was “about two”. For the same compound, the “safety and efficacy in the treatment of PAH” value in series [2] is “demonstrated safety and efficacy”. Besides, the “effect on metabolism of warfarin” value in the series with metabolism of warfarin is reported as “antagonize the metabolism of warfarin”. Besides, the “reproductive toxicology: effect of dosing during pregnancy” value in the series on rat is on record as “several fetal malformations”.
